In patent publication US20120028930A1, “FLUPIRTINE SALTS AND POLYMORPHS” (Bionevia Pharmaceuticals Inc., priority 2010, published 2012):
Where a name gives a salt, the structure may show the parent alone.

Legend:
[1] = stability towards oxidation and discoloration on storage exposed to air; conditions: storage period of 30 days at room temperature, in contrast to other acid addition salts, e.g. maleate and gluconate
Source text: HPLC can be performed after preparation of the salts and repeated after 14 days of storage at room temperature under normal air containing about 21% oxygen.
HPLC analysis can be performed after isolation and drying of flupirtine sulfonate salts and repeated after 14 days of storage at room temperature under open air.
Discolouration can be measured using optical comparison with a standard: the RAL scale of colours (see list). The colour changes during the experiment is compared to this standard list and the appropriate value is noted. The intensity is increasing on a scale ranging from 1 to 10. A higher number means more discolouration. The increase in colour intensity is not proportional but qualitative.

dissolution rate = assay type: physicochemical
[2] = cited from earlier work

| SMILES | stability towards oxidation and towards discoloration [1] | dissolution rate (dissolution rate) | solubility in water [2] |
| --- | --- | --- | --- |
| CC(=O)O.CCOC(=O)Nc1ccc(NCc2ccc(F)cc2)nc1N [flupirtine acetate, 2-amino-3-carbethoxyamino-6-(4-fluoro-benzylamino)-pyridine acetate] | substantially improved stability | – | – |
| CCOC(=O)Nc1ccc(NCc2ccc(F)cc2)nc1N [flupirtine maleate] | – | 0.088 [μg/mL]/min | insoluble |
| CCOC(=O)Nc1ccc(NCc2ccc(F)cc2)nc1N.CS(=O)(=O)O [flupirtine mesylate, 2-amino-3-carbethoxyamino-6-(4-fluoro-benzylamino)-pyridine mesylate] | substantially improved stability | – | – |
| CCC(=O)O.CCOC(=O)Nc1ccc(NCc2ccc(F)cc2)nc1N [flupirtine propionate, 2-amino-3-carbethoxyamino-6-(4-fluoro-benzylamino)-pyridine propionate] | substantially improved stability | – | – |
